The nature of series [1]: Human HepG2 growth inhibition assay (Cell TitreGlo, 48 h). It counts as cell-based. The settings on record: human, HepG2 cells, HepG2 cell growth inhibition over 48 h. Here is the method:
To establish the SAR, synthesized analogs were assessed against the asexual stage parasite (72 h) using LDH as a proxy for parasite growth inhibition. Cytotoxicity was monitored against the human HepG2 cell line using Cell TitreGlo as a metabolic marker for cell growth. Cyt b inhibitors typically have high lipophilicity, and so calculated physicochemical properties were determined, while in vitro ADME was also collected on representative analogs to gauge their suitability for efficacy studies in a 4-day P. berghei model.
Human HepG2 Growth Inhibition Assay. This is a routine assay undertaken at the Walter and Eliza Hall Institute and the method has been previously published. HepG2 cells were cultured in Dulbeccos modified eagles medium (DMEM) supplemented with 10 % fetal calf serum (FCS), in a humidified incubator at 37 °C and 5 % CO2. Assay plates (Greiner #781098, 384 well, white, tissue culture treated) were prepared by transferring appropriate volumes of 10 mM compound stocks using an Echo555 (Labcyte) such that the starting concentration was 50 μM, with a 1:2-fold dilution series. All wells were backfilled with DMSO to […] such that this remained constant (0.5 % DMSO). The positive growth control was 0.5 % DMSO and the negative growth control was 10 μM Bortezomib. HepG2 cells were seeded with 1000 cells in 50 μL DMEM with 10 % FCS into each well of the assay plates using a Multidrop Combi dispenser (Thermo Scientific). Plates were incubated at 37 °C and 5 % CO2 for 48 h. Cytotoxicity was determined using Cell Titer Glo (Promega) and calculated as a percentage using DMSO as the positive growth control and 10 μM Bortezomib as a negative growth control. EC50 values were calculated by Dotmatics 5.3 and Spotfire 7.11.1 software using a nonlinear regression four-parameter fit analysis. The equation used is sigmoidal dose response (variable slope), Y = bottom + (top − bottom)/(1 + 10((logEC50 − X) × Hill Slope)).

Series [2] relates to P. falciparum 3D7 parasites. As to the kind of experiment: P. falciparum 3D7 asexual stage LDH assay (72 h). The class given is cell-based, Plasmodium falciparum. To be noted: Plasmodium falciparum, 3D7, 72 h, LDH activity of P. falciparum 3D7 parasites over 72 h; means and SDs, three or more experiments; read-out: Pf 3D7 EC50 (SD). The method, then:
To establish the SAR, synthesized analogs were assessed against the asexual stage parasite (72 h) using LDH as a proxy for parasite growth inhibition. Cytotoxicity was monitored against the human HepG2 cell line using Cell TitreGlo as a metabolic marker for cell growth.
P. falciparum 3D7 Asexual Stage LDH Assay. This is a platform assay is routinely undertaken at the Walter and Eliza Hall Institute and details on the protocol has been previously published. Briefly, 10-point dilution series of the compounds were prepared in 384 well assay plates using an Echo555 (Labcyte). Appropriate volumes of 10 mM compound stocks were transferred into the assay plates such that the starting concentration was 1 μM, with a 1 in 3-fold dilution series. All wells were backfilled with DMSO to 40 nL such that this remained constant (0.1 % DMSO). The positive growth control was 0.1 % DMSO and the negative growth control was 100 nM chloroquine. The parasite inoculum (40 μL) was dispensed into plates containing compounds using a Multidrop Combi dispenser (Thermo Scientific). […] Following 72 h growth, plates were sealed with parafilm and frozen at −80 °C overnight. Plates were thawed at room temperature for at least 4 h prior to LDH activity being measured. […] Plates were shaken to ensure mixing and absorbance at 650 nm was measured in an EnVision (PerkinElmer) plate reader after 30 min of incubation at room temperature. […] The equation used is sigmoidal dose response (variable slope), Y = bottom + (top − bottom)/(1 + 10((logEC50 − X) × Hill Slope)).

For orientation: CC50 means the concentration at which the toxic effect on the cells reaches its halfway point. For orientation: EC50 means the concentration giving half of the maximal effect.

On to `O=C(NC1CC1)c1ccc(CN(Cc2ccccc2C(F)(F)F)C2CC2)cc1` [Compound 49], for which the CC50 at 48 h in series [1] is more than 40 µM. For the same compound, the EC50 in series [2] is 220 nM.

Consider `Cc1cccc(CN(Cc2ccc(C(=O)NC3CC3)cc2)C2CC2)c1` [Compound 50], for which the CC50 at 48 h in series [1] is more than 40 µM. Besides, the EC50 in series [2] came out at 170 nM.

With `Cc1ccc(CN(Cc2ccc(C(=O)NC3CC3)cc2)C2CC2)cc1` [Compound 51], in series [1], the 50% cytotoxic concentration (CC50) at 48 h was more than 40 µM. In series [2], the EC50 worked out at 150 nM.

As for `O=C(NC1CC1)c1ccc(CN(Cc2cccc(C(F)(F)F)c2)C2CC2)cc1` [Compound 52], the CC50 at 48 h in series [1] is more than 40 µM. Further, the EC50 in series [2] came to 160 nM.

In series [1], `O=C(NC1CC1)c1ccc(CN(Cc2ccc(C(F)(F)F)cc2)C2CC2)cc1` [Compound 53] returned a CC50 at 48 h of more than 40 µM. Moreover, the 50% effective concentration (EC50) in series [2] turned out to be 110 nM.

`CC(C)c1cccc(CN(Cc2ccc(C(=O)NC3CC3)cc2)C2CC2)c1` [Compound 54, N-Cyclopropyl-4-((cyclopropyl(3-isopropylbenzyl)amino)methyl)benzamide] showed a CC50 at 48 h in series [1] of more than 40 µM. Also, the EC50 in series [2] was found to be 80 nM.

As to `CC(C)c1ccc(CN(Cc2ccc(C(=O)NC3CC3)cc2)C2CC2)cc1` [Compound 55, N-Cyclopropyl-4-((cyclopropyl(4-isopropylbenzyl)amino)methyl)benzamide], the CC50 at 48 h in series [1] was more than 40 µM. Also, the EC50 in series [2] is 110 nM.

Consider `CC(C)(C)c1ccc(CN(Cc2ccc(C(=O)NC3CC3)cc2)C2CC2)cc1` [Compound 56], for which the CC50 at 48 h in series [1] is more than 40 µM. In series [2], the EC50 was determined as 60 nM.

`COc1ccccc1CN(Cc1ccc(C(=O)NC2CC2)cc1)C1CC1` [Compound 57] registered a CC50 at 48 h in series [1] of more than 40 µM. Moreover, the EC50 in series [2] was 270 nM.

On to `COc1cccc(CN(Cc2ccc(C(=O)NC3CC3)cc2)C2CC2)c1` [Compound 58], for which the 50% cytotoxic concentration (CC50) at 48 h in series [1] was more than 40 µM. The EC50 in series [2] came out at 490 nM.

Compound `COc1ccc(CN(Cc2ccc(C(=O)NC3CC3)cc2)C2CC2)cc1` [Compound 59] returned a CC50 at 48 h in series [1] of more than 40 µM. The EC50 in series [2] came out at 230 nM.

On to `N#Cc1ccccc1CN(Cc1ccc(C(=O)NC2CC2)cc1)C1CC1` [Compound 60], for which the CC50 at 48 h in series [1] is more than 40 µM. Besides, the EC50 in series [2] worked out at 120 nM.

As for `N#Cc1cccc(CN(Cc2ccc(C(=O)NC3CC3)cc2)C2CC2)c1` [Compound 61], in series [1], the CC50 at 48 h was more than 40 µM. The concentration for a half-maximal effect (EC50) in series [2] came to 130 nM.

`N#Cc1ccc(CN(Cc2ccc(C(=O)NC3CC3)cc2)C2CC2)cc1` [Compound 62] registered a CC50 at 48 h in series [1] of more than 40 µM. The EC50 in series [2] worked out at 630 nM.

Compound `CN(C)c1ccc(CN(Cc2ccc(C(=O)NC3CC3)cc2)C2CC2)cc1` [Compound 63, N-Cyclopropyl-4-((cyclopropyl(4-(dimethylamino)benzyl)amino)methyl)benzamide] displayed a CC50 at 48 h in series [1] of more than 40 µM. For the same compound, in series [2], the EC50 is 530 nM.

Consider `CN(C)c1cccc(CN(Cc2ccc(C(=O)NC3CC3)cc2)C2CC2)c1` [Compound 64, N-Cyclopropyl-4-((cyclopropyl(3-(dimethylamino)benzyl)amino)methyl)benzamide], for which the cytotoxic concentration (CC50) at 48 h in series [1] is more than 40 µM. Further, the EC50 in series [2] was determined as 320 nM.

The compound `CC(=O)Nc1ccccc1CN(Cc1ccc(C(=O)NC2CC2)cc1)C1CC1` [Compound 65, 4-(((2-Acetamidobenzyl) (cyclopropyl)amino)methyl)-N-cyclopropylbenzamide] yielded a CC50 at 48 h in series [1] of more than 40 µM. Further, the EC50 in series [2] is 7400 nM.

`CC(=O)c1cccc(CN(Cc2ccc(C(=O)NC3CC3)cc2)C2CC2)c1` [Compound 68] came in with a CC50 at 48 h in series [1] of more than 40 µM. In addition, in series [2], the concentration for a half-maximal effect (EC50) worked out at 110 nM.

Consider `CC(=O)c1ccc(CN(Cc2ccc(C(=O)NC3CC3)cc2)C2CC2)cc1` [Compound 69], for which, in series [1], the CC50 at 48 h was more than 40 µM. Also, the 50% effective concentration (EC50) in series [2] was determined as 900 nM.

As to `O=C(NC1CC1)c1ccc(CN(Cc2cccc(CO)c2)C2CC2)cc1` [Compound 70, N-Cyclopropyl-4-((cyclopropyl(3-(hydroxymethyl)benzyl)amino)methyl)benzamide], in series [1], the CC50 at 48 h is more than 40 µM. Also, in series [2], the EC50 was found to be 1100 nM.

Compound `O=C(NC1CC1)c1ccc(CN(Cc2ccc(CO)cc2)C2CC2)cc1` [Compound 71, N-Cyclopropyl-4-((cyclopropyl(4-(hydroxymethyl)benzyl)amino)methyl)benzamide] displayed a CC50 at 48 h in series [1] of more than 40 µM. The EC50 in series [2] stood at 170 nM.

Compound `O=C(NC1CC1)c1ccc(CN(Cc2ccc(F)cc2F)C2CC2)cc1` [Compound 72, N-Cyclopropyl-4-((cyclopropyl(2,4-difluorobenzyl)amino)methyl)benzamide] displayed a 50% cytotoxic concentration (CC50) at 48 h in series [1] of more than 40 µM. Besides, in series [2], the EC50 was found to be 230 nM.

For `O=C(NC1CC1)c1ccc(CN(Cc2ccc(F)c(F)c2)C2CC2)cc1` [Compound 73], the cytotoxic concentration (CC50) at 48 h in series [1] was more than 40 µM. Besides, in series [2], the EC50 came to 220 nM.

For `O=C(NC1CC1)c1ccc(CN(Cc2cc(F)cc(F)c2)C2CC2)cc1` [Compound 74], in series [1], the CC50 at 48 h is more than 40 µM. Also, the EC50 in series [2] was 220 nM.

In the case of `O=C(NC1CC1)c1ccc(CN(Cc2c(F)cc(F)cc2F)C2CC2)cc1` [Compound 75, N-Cyclopropyl-4-((cyclopropyl(2,4,6-trifluorobenzyl)amino)methyl)benzamide], the CC50 at 48 h in series [1] was more than 40 µM. In series [2], the concentration giving a half-maximal response (EC50) stood at 190 nM.

`O=C(NC1CC1)c1ccc(CN(Cc2ccc(Cl)c(Cl)c2)C2CC2)cc1` [Compound 76]: the CC50 at 48 h in series [1] was more than 40 µM. The EC50 in series [2] was found to be 210 nM.

Compound `O=C(NC1CC1)c1ccc(CN(Cc2cc(Cl)cc(Cl)c2)C2CC2)cc1` [Compound 77] returned a CC50 at 48 h in series [1] of more than 40 µM. Further, the EC50 in series [2] was 230 nM.

In series [1], `O=C(NC1CC1)c1ccc(CN(Cc2c(Cl)cc(Cl)cc2Cl)C2CC2)cc1` [Compound 78, N-Cyclopropyl-4-((cyclopropyl(2,4,6-trichlorobenzyl)amino)methyl)benzamide] came in with a CC50 at 48 h of more than 40 µM. The EC50 in series [2] was 100 nM.

In series [1], `Cc1ccc(CN(Cc2ccc(C(=O)NC3CC3)cc2)C2CC2)c(C)c1` [Compound 80, N-Cyclopropyl-4-((cyclopropyl(2,4-dimethylbenzyl)amino)methyl)benzamide] had a CC50 at 48 h of more than 40 µM. Further, in series [2], the EC50 came out at 190 nM.

In turn, `Cc1cc(C)cc(CN(Cc2ccc(C(=O)NC3CC3)cc2)C2CC2)c1` [Compound 81] registered a CC50 at 48 h in series [1] of more than 40 µM. In addition, in series [2], the EC50 came out at 190 nM.

In series [1], `Cc1cc(C)c(CN(Cc2ccc(C(=O)NC3CC3)cc2)C2CC2)c(C)c1` [Compound 82, N-Cyclopropyl-4-((cyclopropyl(2,4,6-trimethylbenzyl)amino)methyl)benzamide] showed a 50% cytotoxic concentration (CC50) at 48 h of more than 40 µM. Further, the EC50 in series [2] was determined as 80 nM.

In the case of `COc1cc(OC)c(CN(Cc2ccc(C(=O)NC3CC3)cc2)C2CC2)c(OC)c1` [Compound 83, N-Cyclopropyl-4-((cyclopropyl(2,4,6-trimethoxybenzyl)amino)methyl)benzamide], the CC50 at 48 h in series [1] is more than 40 µM. Besides, the EC50 in series [2] is 2500 nM.

Consider `O=C(NC1CC1)c1ccc(CN(Cc2cc(C(F)(F)F)cc(C(F)(F)F)c2)C2CC2)cc1` [Compound 84, 4-(((3,5-Bis(trifluoromethyl)benzyl) (cyclopropyl)amino)methyl)-N-cyclopropylbenzamide], for which the CC50 at 48 h in series [1] was 15 µM. For the same compound, the EC50 in series [2] was determined as 100 nM.

`O=C(NC1CC1)c1ccc(CN(Cc2ccccn2)C2CC2)cc1` [Compound 85] displayed a half-maximal cytotoxic concentration (CC50) at 48 h in series [1] of more than 40 µM. The EC50 in series [2] is 6600 nM.

As for `O=C(NC1CC1)c1ccc(CN(Cc2ccncc2)C2CC2)cc1` [Compound 87], the CC50 at 48 h in series [1] was more than 40 µM. Besides, the EC50 in series [2] is 9200 nM.

In series [1], `CCCN(Cc1ccc(C(=O)NC2CC2)cc1)C1CC1` [Compound 90, N-Cyclopropyl-4-((cyclopropyl(propyl)amino)methyl)benzamide] registered a CC50 at 48 h of more than 40 µM. In addition, in series [2], the EC50 came out at 2500 nM.

These data come from publication PMC11609934, “Exploration and characterization of the antimalarial activity of cyclopropyl carboxamides that target the mitochondrial protein, cytochrome b” (European Journal of Medicinal Chemistry, 2024).
